Values of other authors, collected in US20070099940A1, “Pth agonists” (priority 2004, published 2007).

Test system: fracture incidence
Settings: daily subcutaneous injection for up to 2 years, postmenopausal women

Compound: CC[C@H](C)[C@H](NC(=O)[C@H](CCC(=O)O)NC(=O)[C@H](CO)NC(=O)[C@@H](NC(=O)[C@@H](N)CO)C(C)C)C(=O)N[C@@H](CCC(N)=O)C(=O)N[C@@H](CC(C)C)C(=O)N[C@@H](CCSC)C(=O)N[C@@H](Cc1cnc[nH]1)C(=O)N[C@@H](CC(N)=O)C(=O)N[C@@H](CC(C)C)C(=O)NCC(=O)N[C@@H](CCCCN)C(=O)N[C@@H](Cc1cnc[nH]1)C(=O)N[C@@H](CC(C)C)C(=O)N[C@@H](CC(N)=O)C(=O)N[C@@H](CO)C(=O)N[C@@H](CCSC)C(=O)N[C@@H](CCC(=O)O)C(=O)N[C@@H](CCCN=C(N)N)C(=O)N[C@H](C(=O)N[C@@H](CCC(=O)O)C(=O)N[C@@H](Cc1c[nH]c2ccccc12)C(=O)N[C@@H](CC(C)C)C(=O)N[C@@H](CCCN=C(N)N)C(=O)N[C@@H](CCCCN)C(=O)N[C@@H](CCCCN)C(=O)N[C@@H](CC(C)C)C(=O)N[C@@H](CCC(N)=O)C(=O)N[C@@H](CC(=O)O)C(=O)N[C@H](C(=O)N[C@@H](Cc1cnc[nH]1)C(=O)N[C@@H](CC(N)=O)C(=O)N[C@@H](Cc1ccccc1)C(=O)O)C(C)C)C(C)C [PTH(1-34)]
- reduction of fracture incidence at non-vertebral sites: 40%
- reduction of fracture incidence at the spine: 65%
